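Results reflect a 48-hour exposure of cells in 96-well plates to compound at five concentrations. The concentration for 50% growth inhibition is given as GI50.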 Active and inactive are the calls of the source. Rule as the data show it: active = GI50 up to about 1.1 µM and inactive = higher.
Legend:
Assay in all cases: growth of human tumour cells (NCI), 48 h
BT-549 = system: BT-549
CAKI-1 = system: CAKI-1
HCC 2998 = system: HCC 2998
HCT-116 = system: HCT-116
Hs-578T = system: Hs-578T
KM12 = system: KM12
MOLT-4 = system: MOLT-4
Malme-3M = system: Malme-3M
NCI/ADR-RES = system: NCI/ADR-RES
OVCAR-5 = system: OVCAR-5
PC-3 = system: PC-3
RPMI-8226 = system: RPMI-8226
SF-539 = system: SF-539
SK-MEL-5 = system: SK-MEL-5
SN12C = system: SN12C
SNB-19 = system: SNB-19
SR = system: SR
U-251 = system: U-251
UACC-257 = system: UACC-257
UACC-62 = system: UACC-62

Measured: GI50

CC(NC(=O)C(NC(=O)CNC(=O)OC(C)(C)C)C(C)C)C(=O)Oc1c(Cl)c(Cl)c(Cl)c(Cl)c1Cl (stereo not given)
inactive: BT-549 23.8 µM | CAKI-1 19 µM | HCC 2998 19.6 µM | HCT-116 17.3 µM | Hs-578T 20.1 µM | KM12 15.1 µM | MOLT-4 34.6 µM | Malme-3M 21.5 µM | NCI/ADR-RES 17.5 µM | OVCAR-5 14.7 µM | PC-3 16 µM | RPMI-8226 45.2 µM | SF-539 17.5 µM | SK-MEL-5 17.1 µM | SN12C 19.2 µM | SNB-19 30.8 µM | SR 71 µM | U-251 21.1 µM | UACC-257 15.9 µM | UACC-62 18.2 µM

CCCCNc1nc2ccccc2c2c1ncn2CC(C)C
inactive: BT-549 > 100 µM | CAKI-1 > 100 µM | HCC 2998 > 100 µM | HCT-116 > 100 µM | Hs-578T > 100 µM | KM12 > 100 µM | MOLT-4 > 100 µM | Malme-3M > 100 µM | NCI/ADR-RES > 100 µM | OVCAR-5 > 100 µM | PC-3 > 100 µM | RPMI-8226 > 100 µM | SF-539 > 100 µM | SK-MEL-5 > 100 µM | SN12C > 100 µM | SNB-19 > 100 µM | SR > 100 µM | U-251 > 100 µM | UACC-257 > 100 µM | UACC-62 > 100 µM

C/C(=N\N)C(CN1CCCCC1)C(c1ccccc1)c1c(O)c2ccccc2oc1=O (stereo not given)
inactive: BT-549 > 100 µM | CAKI-1 > 100 µM | HCC 2998 > 100 µM | HCT-116 > 100 µM | Hs-578T > 100 µM | KM12 > 100 µM | MOLT-4 > 69.2 µM | Malme-3M > 87.7 µM | NCI/ADR-RES > 100 µM | OVCAR-5 > 100 µM | PC-3 > 100 µM | RPMI-8226 > 100 µM | SF-539 > 100 µM | SK-MEL-5 > 100 µM | SN12C > 100 µM | SNB-19 > 100 µM | SR > 100 µM | U-251 > 100 µM | UACC-257 > 100 µM | UACC-62 > 100 µM

O=C(Oc1ccccn1)c1cc2cc(CCl)ccc2oc1=O
inactive: BT-549 22.3 µM | CAKI-1 28.7 µM | HCC 2998 58.9 µM | HCT-116 25.8 µM | Hs-578T 21.7 µM | KM12 66.8 µM | MOLT-4 31.2 µM | Malme-3M 15.7 µM | NCI/ADR-RES 27 µM | OVCAR-5 37.5 µM | PC-3 18.5 µM | RPMI-8226 35.6 µM | SF-539 50.5 µM | SK-MEL-5 51.8 µM | SN12C 25.2 µM | SNB-19 27 µM | SR 30.4 µM | U-251 18.5 µM | UACC-257 77.1 µM | UACC-62 27.2 µM

— ChEMBL document CHEMBL1201862, “PubChem BioAssay data set” (2004)
